Results taken from patent US20230058623A1, “NOVEL HETEROARYL-TRIAZOLE COMPOUNDS AS PESTICIDES” (Bayer Aktiengesellschaft, priority 2019, published 2023).

What was measured:
Assay type in all cases: in vivo
[1] = tested on: Rhipicephalus (Boophilus) microplus larvae (strain Parkhurst, resistant against synthetic pyrethroids); test: Rhipicephalus (Boophilus) microplus in-vitro contact test, larval cattle tick; details: after 48 hours, read-out: activity (efficacy: larvae dead or moribund); for pest or weed control at 1 µg/cm2, 100 g/ha: application rate 1 μg/cm^2 (=100 g/ha); for pest or weed control at 5 µg/cm2, 500 g/ha: application rate 5 μg/cm^2 (=500 g/ha)
Procedure, shortened: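 Acetone solutions were coated onto glass tube walls, giving 5 μg/cm^2 at 900 ppm. Once dry, 20–50 pyrethroid-resistant Parkhurst larvae were added per tube and held 48 h at 27 °C and 85% RH. Efficacy was scored by negative geotaxis as the percentage of dead or moribund larvae.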

[2] = tested on: adult flies Musca domestica strain WHO-N; test: Musca domestica test (MUSCDO surface treatment & contact assay); details: 24 hours after contact, read-out: efficacy (mortality); for mortality at 4 mg/m2: surface concentration 4 mg/m^2, exposure 30 minutes; for mortality at 20 mg/m2: surface concentration 20 mg/m^2, exposure 30 minutes
Procedure, shortened: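 Compound dissolved at 2 mg/ml in acetone with 2000 ppm RME, applied to glazed tile and dried; adult flies exposed on the surface for 30 min. Percent mortality scored 24 h after contact.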

[3] = tested on: cattle ticks (Rhipicephalus microplus) strain Parkhurst, SP-resistant; test: Rhipicephalus (Boophilus) microplus dip test; details: 168 h, application rate 100 ppm, egg deposition after 7 days, read-out: activity (efficacy: infertile eggs)
Protocol: Rhipicephalus (Boophilus) microplus—Dip Test
Test animal: cattle ticks (Rhipicephalus microplus) strain Parkhurst, SP-resistant
Solvent: dimethyl sulfoxide
To produce a suitable preparation of active compound, 10 mg of active compound are dissolved in 0.5 mL solvent, and the concentrate is diluted with water to the desired concentration.
This compound solution is pipetted into tubes. 8-10 engorged, adult, female cattle ticks (Rhipicephalus microplus) are placed in perforated tubes. These tubes are immersed in the aqueous compound solution until the ticks are completely moistened. After the liquid has drained off, the ticks are transferred to a filter paper in a plastic tray and stored in a climate chamber.
After 7 days egg deposition of fertile eggs is monitored. Eggs where fertility is not visible are stored in a climate chamber till hatching after about 42 days. An efficacy of 100% means all eggs are infertile; 0% means all eggs are fertile.

[4] = tested on: adult mosquitoes Anopheles funestus strain FUMOZ-R; test: Anopheles funestus test (ANPHFU surface treatment & contact assay); details: surface concentration 20 mg/m^2, exposure 30 minutes, 24 hours after contact, read-out: efficacy (mortality)
Protocol: Anopheles funestus Test (ANPHFU Surface Treatment & Contact Assay)
Solvent: Aceton+2000 ppm rapeseed oil methyl ester (RME)
In order to produce a sufficient, active ingredient containing solution it is necessary to solve the test compound in the solvent-mix (acetone at 2 mg/ml/RME 2000 ppm). This solution is pipetted onto a glazed tile and after evaporation of the acetone, adult mosquitoes of the species Anopheles funestus strain FUMOZ-R (Hunt et al., Med. Vet. Entomol. 2005 September; 19(3): 271-275) are placed onto the dried surface. The exposure time is 30 minutes.
Mortality in percent (%) is determined 24 hours after contact of the insects to the treated surface. 100% mortality means that all tested insects are dead, whereas 0% means that no insect died.

[5] = tested on: adult brown dog ticks (Rhipicephalus sanguineus); test: Rhipicephalus sanguineus in-vitro contact test, adult brown dog ticks; details: application rate 5 μg/cm^2 (=500 g/ha), after 48 hours, read-out: activity (efficacy: ticks dead or moribund)
Procedure, shortened: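 Compound in acetone was coated onto inner walls of glass tubes by rotation (2 h, 30 rpm); 900 ppm gives 5 μg/cm^2. After drying, 5-10 adult ticks were enclosed per tube at room temperature; after 48 h, heat-escape test at 45-50° C scored dead/moribund ticks as % efficacy.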

[6] = tested on: two spotted spidermite (Tetranychus urticae); test: Tetranychus urticae spray test OP-resistant; details: foliar, 144 h, application rate 100 g/ha, after 6 days, French bean leaf disks
Protocol: Tetranychus urticae—Spray Test OP-Resistant
To produce a suitable preparation of active compound, 1 part by weight of active compound is mixed with the stated amount of solvents and is diluted with water, containing an emulsifier concentration of 1000 ppm, to the desired concentration. Further test concentrations are prepared by dilution with emulsifier containing water.
French bean (Phaseolus vulgaris) leaf disks infected with all instars of the two spotted spidermite (Tetranychus urticae) are sprayed with a preparation of the active ingredient of the desired concentration.
After 6 days mortality in % is determined. 100% means all spider mites have been killed and 0% means none of the spider mites have been killed.

[7] = tested on: brown planthopper (Nilaparvata lugens); test: Nilaparvata lugens spray test; details: 96 h, application rate 100 g/ha, after 4 days, rice plants
Procedure, shortened: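 Rice plants sprayed with compound diluted in water containing 1000 ppm emulsifier, then infested with brown planthopper. Mortality (%) scored after 4 days, 100% meaning all insects killed.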

| Compound | pest or weed control at 1 µg/cm2, 100 g/ha [1] | pest or weed control at 5 µg/cm2, 500 g/ha [1] | mortality at 4 mg/m2 [2] | mortality at 20 mg/m2 [2] | pest or weed control at 100 ppm [3] | mortality at 20 mg/m2 [4] | pest or weed control at 5 µg/cm2, 500 g/ha [5] | mortality at 100 g/ha [6] | mortality at 100 g/ha [7] |
| --- | --- | --- | --- | --- | --- | --- | --- | --- | --- |
| CC1CN(C(=O)c2ccc(-n3ncnc3[C@H](C)NC(=O)c3cc(C(F)(F)F)cc(C(F)(F)F)c3)nc2)CC(C)O1 (stereo partly drawn) [Example I-5] | 100% | 100% | 80 to 100% | 80 to 100% | 100% | 80 to 100% | 100% | 90% | 90% |
| Cc1nc([C@H](C)NC(=O)c2cc(C(F)(F)F)cc(C(F)(F)F)c2)n(-c2ccc(C(=O)N3CCOCC3)cn2)n1 [Example I-9, N-[(1S)-1-{3-methyl-1-[5-(morpholin-4-ylcarbonyl)pyridin-2-yl]-1H-1,2,4-triazol-5-yl}ethyl]-3,5-bis(trifluoromethyl)benzamide] | 100% | 100% | 80 to 100% | 80 to 100% | 100% | 80 to 100% | 100% | 100% | 100% |
